# Data as given in publication PMC10766536 (The Journal of Antibiotics, 2023).
# Like-named read-outs stand apart in the source and are kept apart here.
# Legend:
# S. aureus NRS384 [1] = assay: S. aureus intracellular killing assay in THP-1 macrophages; format: cell-based; conditions: S. aureus NRS384 in THP-1 macrophages, 2 h, top conc. 1e−6 M
# Description: (§1) THP-1 monocytic cell line (American Type Culture Collection) was grown in media (RPMI + 10% FBS + 1% Penicillin/Streptomycin), then seeded at a density of 1e5 cells/well in a 96 well plate and differentiated into macrophages for 3 days prior to infection using 200 nM PMA. Overnight culture of S. aureus or S. typhimurium was grown in RPMI or TSB, respectively, washed twice with PBS and resuspended at 1e7 cfu/ml in PBS. THP-1 were washed with warm media (RMPI without FBS) to remove the Penicillin/Streptomycin and then infected with the bacterial suspension at a multiplicity of infection of 10:1 (S. aureus:macrophages) or 5:1 (S. typhimurium:macrophages). Plates were centrifuged at 300 × g for 5 min to synchronize adhesion of the bacteria to the macrophages, then incubated at 37 °C for 2 h for S. aureus infection or 1 h for S. typhimurium infection. Free-floating bacteria were removed by washing twice with warm media and the remaining extracellular bacteria were killed by addition of media containing gentamicin (50 ug/ml). After 1 h, media was aspirated and the indicated compound was added to the S. aureus-infected macrophages in a dilution series starting at 1e−6 M, with 1:5 dilutions for 6 points (1.0 × 10^−6 M, 2.0 × 10^−7 M, 4.0 × 10^−8 M, 8.0 × 10^−9 M, 1.6 × 10^−9 M, and 3.2 × 10^−10 M) or to the to the S. typhimurium-infected macrophages in a dilution series starting at 1e−4 M, with 1:3 dilutions followed by 1:10 dilutions for 6 points (1.0 × 10^−4 M, 3.0 × 10^−5 M, 1.0 × 10^−5 M, 1.0 × 10^−6 M, 1.0 × 10^−7 M, and 1.0 × 10^−8 M). The compounds were added in media containing 50 µg/ml gentamicin to prevent extracellular growth of bacteria. After 2 h, plates were washed twice with warm RPMI without FBS, and 100 μl of THP-1 lysis buffer (0.1% Triton in PBS) was added to each well. Bacterial survival was enumerated by colony forming units (cfu) through serial dilution and plating onto tryptic soy agar (TSA, Teknova) plates.
# [2] = system: Salmonella typhimurium AR-0031; assay: S. typhimurium intracellular killing assay in THP-1 macrophages; format: cell-based; conditions: Salmonella typhimurium AR-0031 in THP-1 macrophages, top conc. 1e−4 M
# Description: as §1
# [3] = system: Salmonella typhimurium ATCC 14028; assay: as above; format: cell-based; conditions: Salmonella typhimurium ATCC 14028 in THP-1 macrophages, top conc. 1e−4 M
# Description: as §1
# Sprague Dawley rats = assay: 2-week IV once-a-day toxicity study with 2-week recovery in Sprague Dawley rats
# Description: A subset from each dose group was maintained for 14 days after the last dose to evaluate delayed toxicity and/or recovery. All animals were observed twice daily for mortality and signs of pain or distress. Detailed clinical observations, body weight measurements and food consumption were conducted weekly; post dose observations (30 min post dose) were conducted daily or as required. Clinical pathology evaluations (hematology, coagulation parameters, and serum chemistry) were performed using samples collected on the day of scheduled sacrifice (main and recovery). At the end of the 14-day dosing period, and at the end of the 14-day recovery period, necropsies were performed on all animals, selected organs were weighed, and tissues were examined macroscopically and microscopically. Toxicokinetic parameters were evaluated on Day 1 and 14.
# [4] = mouse, s9
# [5] = rat, s9
# [6] = system: Caco-2: endogenous transporters
# CYP 1A2 = CYP 1A2 (Homo sapiens, UniProt P05177); conditions: read-out: CYP inhibition IC50; CYP 1A2, substrate Phenacetin; ND = Not Detected
# CYP 1A2, sequence (P05177 whole entry): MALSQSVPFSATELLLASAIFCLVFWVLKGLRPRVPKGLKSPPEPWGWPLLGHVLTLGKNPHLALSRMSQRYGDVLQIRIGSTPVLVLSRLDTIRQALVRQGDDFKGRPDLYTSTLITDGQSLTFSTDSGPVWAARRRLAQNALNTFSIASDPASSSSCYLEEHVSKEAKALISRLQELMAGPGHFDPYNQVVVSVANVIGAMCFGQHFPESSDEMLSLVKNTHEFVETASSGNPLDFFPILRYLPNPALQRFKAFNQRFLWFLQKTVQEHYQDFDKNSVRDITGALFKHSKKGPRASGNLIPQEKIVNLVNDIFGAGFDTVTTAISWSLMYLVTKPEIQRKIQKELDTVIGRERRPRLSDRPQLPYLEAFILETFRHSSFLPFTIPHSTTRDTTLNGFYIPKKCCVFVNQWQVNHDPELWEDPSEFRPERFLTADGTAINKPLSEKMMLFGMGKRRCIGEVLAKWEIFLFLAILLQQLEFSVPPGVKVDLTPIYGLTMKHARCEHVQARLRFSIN
# CYP 2B6 = CYP 2B6 (Homo sapiens, UniProt P20813)
# CYP 2B6, sequence (P20813 whole entry): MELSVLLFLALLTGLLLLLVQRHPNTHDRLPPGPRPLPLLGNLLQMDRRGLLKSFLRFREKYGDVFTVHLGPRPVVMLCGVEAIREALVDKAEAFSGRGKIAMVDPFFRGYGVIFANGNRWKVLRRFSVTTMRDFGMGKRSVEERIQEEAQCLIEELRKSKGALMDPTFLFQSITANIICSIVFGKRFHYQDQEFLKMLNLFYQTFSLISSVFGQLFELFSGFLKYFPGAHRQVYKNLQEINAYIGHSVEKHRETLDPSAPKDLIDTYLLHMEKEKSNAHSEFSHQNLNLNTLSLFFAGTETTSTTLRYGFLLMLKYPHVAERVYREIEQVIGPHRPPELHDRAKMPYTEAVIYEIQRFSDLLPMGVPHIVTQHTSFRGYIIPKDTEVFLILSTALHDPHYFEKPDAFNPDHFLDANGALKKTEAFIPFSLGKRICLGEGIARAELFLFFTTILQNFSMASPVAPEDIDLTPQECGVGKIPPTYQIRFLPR
# CYP 2C19 = CYP 2C19 (Homo sapiens, UniProt P33261)
# CYP 2C19, sequence (P33261 whole entry): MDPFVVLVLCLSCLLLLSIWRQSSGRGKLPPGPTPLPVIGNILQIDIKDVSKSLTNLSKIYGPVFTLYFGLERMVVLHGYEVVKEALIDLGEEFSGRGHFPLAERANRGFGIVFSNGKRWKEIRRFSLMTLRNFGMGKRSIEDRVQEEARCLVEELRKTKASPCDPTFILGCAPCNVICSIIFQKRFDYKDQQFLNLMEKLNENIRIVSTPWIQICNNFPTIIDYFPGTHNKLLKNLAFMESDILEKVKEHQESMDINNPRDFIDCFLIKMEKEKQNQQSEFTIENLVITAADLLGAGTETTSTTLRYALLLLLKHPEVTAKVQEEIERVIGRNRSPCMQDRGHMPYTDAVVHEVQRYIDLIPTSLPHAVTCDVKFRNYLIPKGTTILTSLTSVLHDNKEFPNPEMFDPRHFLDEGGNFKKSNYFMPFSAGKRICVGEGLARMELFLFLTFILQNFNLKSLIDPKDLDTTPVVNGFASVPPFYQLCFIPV
# CYP 3A4 = CYP 3A4 (Homo sapiens, UniProt P08684); conditions: read-out: CYP inhibition IC50, ND = Not Detected
# CYP 3A4, sequence (P08684 whole entry): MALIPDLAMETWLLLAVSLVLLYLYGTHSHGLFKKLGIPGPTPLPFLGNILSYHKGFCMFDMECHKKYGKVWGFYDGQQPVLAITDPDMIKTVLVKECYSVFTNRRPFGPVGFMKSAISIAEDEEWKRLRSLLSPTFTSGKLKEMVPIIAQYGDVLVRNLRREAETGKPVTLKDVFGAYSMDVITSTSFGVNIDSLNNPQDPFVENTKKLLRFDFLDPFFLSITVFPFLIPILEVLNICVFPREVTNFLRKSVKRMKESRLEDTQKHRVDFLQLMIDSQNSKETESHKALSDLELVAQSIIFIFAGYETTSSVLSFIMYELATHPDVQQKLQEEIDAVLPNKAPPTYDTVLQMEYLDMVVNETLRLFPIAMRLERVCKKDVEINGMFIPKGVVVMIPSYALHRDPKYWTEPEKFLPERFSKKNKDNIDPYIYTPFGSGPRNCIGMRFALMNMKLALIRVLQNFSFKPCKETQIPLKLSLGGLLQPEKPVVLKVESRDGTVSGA
# CYP 2C8 = CYP 2C8 (Homo sapiens, UniProt P10632); assay: CYP inhibition; conditions: read-out: CYP inhibition IC50; CYP 2C8, substrate Amodiaquine; ND = Not Detected
# CYP 2C8, sequence (P10632 whole entry): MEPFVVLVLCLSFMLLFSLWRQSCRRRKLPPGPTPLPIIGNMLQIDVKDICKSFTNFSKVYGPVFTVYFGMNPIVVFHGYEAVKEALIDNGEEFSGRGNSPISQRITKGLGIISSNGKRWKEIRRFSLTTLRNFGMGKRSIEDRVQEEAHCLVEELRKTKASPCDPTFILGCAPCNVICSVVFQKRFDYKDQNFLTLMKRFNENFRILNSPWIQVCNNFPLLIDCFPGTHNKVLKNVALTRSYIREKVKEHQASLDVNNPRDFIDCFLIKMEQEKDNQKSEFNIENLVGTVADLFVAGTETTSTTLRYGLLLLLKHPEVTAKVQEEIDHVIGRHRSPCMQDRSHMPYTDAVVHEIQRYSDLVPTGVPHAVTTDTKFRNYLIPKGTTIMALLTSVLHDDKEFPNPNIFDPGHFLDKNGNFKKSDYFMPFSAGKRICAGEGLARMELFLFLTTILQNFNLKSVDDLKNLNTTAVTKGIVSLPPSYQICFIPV
# CYP 2D6 = CYP 2D6 (Homo sapiens, UniProt P10635); assay: CYP inhibition; conditions: read-out: CYP inhibition IC50; CYP 2D6, substrate Dextromethorphan; ND = Not Detected
# CYP 2D6, sequence (P10635 whole entry): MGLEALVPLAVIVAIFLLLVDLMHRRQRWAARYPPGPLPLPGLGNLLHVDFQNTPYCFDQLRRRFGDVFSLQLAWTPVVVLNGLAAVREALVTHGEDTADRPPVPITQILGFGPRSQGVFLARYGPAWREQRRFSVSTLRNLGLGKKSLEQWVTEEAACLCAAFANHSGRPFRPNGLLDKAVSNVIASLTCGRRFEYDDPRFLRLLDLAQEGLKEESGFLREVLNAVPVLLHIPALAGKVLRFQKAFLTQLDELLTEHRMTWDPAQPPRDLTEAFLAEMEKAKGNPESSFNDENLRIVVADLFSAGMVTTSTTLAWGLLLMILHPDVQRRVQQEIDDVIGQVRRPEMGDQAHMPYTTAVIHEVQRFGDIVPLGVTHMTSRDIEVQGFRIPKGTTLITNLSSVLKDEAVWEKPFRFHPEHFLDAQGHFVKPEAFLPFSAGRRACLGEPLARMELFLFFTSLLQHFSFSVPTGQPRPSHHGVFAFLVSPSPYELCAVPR
# [7] = system: Caco-2: endogenous transporters; assay: Caco-2 permeability
# [8] = biological target: MDCK-MDR1: overexpression of Pgp (Homo sapiens, UniProt P08183); assay: MDCK-MDR1 permeability and efflux
# MDCK-MDR1: overexpression of Pgp, sequence (P08183 whole entry): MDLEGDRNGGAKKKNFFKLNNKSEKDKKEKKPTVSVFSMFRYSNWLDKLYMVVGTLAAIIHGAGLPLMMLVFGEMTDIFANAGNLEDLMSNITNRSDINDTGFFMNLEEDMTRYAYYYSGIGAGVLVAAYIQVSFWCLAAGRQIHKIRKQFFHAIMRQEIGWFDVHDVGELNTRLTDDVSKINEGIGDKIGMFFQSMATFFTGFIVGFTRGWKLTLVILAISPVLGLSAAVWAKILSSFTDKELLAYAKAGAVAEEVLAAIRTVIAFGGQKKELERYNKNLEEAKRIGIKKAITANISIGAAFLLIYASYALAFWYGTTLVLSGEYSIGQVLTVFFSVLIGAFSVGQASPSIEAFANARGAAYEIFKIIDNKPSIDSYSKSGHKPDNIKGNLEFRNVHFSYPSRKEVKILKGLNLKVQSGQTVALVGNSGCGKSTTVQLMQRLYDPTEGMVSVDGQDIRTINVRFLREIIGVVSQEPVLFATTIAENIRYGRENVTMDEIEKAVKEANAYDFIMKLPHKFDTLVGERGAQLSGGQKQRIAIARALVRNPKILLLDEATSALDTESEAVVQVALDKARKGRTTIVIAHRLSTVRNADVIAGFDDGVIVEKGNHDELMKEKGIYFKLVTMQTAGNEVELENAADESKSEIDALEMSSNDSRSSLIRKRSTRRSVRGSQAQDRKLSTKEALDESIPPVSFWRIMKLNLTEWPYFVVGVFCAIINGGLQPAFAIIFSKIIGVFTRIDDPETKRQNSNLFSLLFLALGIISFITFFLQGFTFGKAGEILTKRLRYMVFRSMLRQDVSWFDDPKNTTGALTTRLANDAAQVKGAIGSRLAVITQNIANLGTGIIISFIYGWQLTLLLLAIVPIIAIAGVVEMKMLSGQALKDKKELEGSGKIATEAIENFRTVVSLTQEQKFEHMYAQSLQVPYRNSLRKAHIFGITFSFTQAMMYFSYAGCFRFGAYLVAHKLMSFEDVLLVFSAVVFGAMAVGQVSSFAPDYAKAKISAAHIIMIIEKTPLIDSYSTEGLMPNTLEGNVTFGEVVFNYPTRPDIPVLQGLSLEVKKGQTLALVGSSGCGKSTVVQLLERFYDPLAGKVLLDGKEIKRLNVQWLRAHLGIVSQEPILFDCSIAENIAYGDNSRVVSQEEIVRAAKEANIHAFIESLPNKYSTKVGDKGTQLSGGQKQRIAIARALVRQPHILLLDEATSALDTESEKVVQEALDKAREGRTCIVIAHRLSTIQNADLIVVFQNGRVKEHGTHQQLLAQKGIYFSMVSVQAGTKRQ
# [9] = S9 microsome stability, CD-1 mouse; conditions: text statement for rodent (mouse and rat) S9
# [10] = Compound stability in CYP induction assay
# S. aureus NRS384 [11] = assay: S. aureus broth killing (growth inhibition) assay; conditions: S. aureus NRS384, TSB, 24 h, OD600
# Description: (§2) To test the potency of rifamycin analogs of the disclosure in vitro, a broth growth inhibition assay was developed.
# [12] = system: Salmonella typhimurium ATCC 14028; assay: S. typhimurium broth killing (growth inhibition) assay; conditions: Salmonella typhimurium ATCC 14028, TSB, 24 h
# Description: as §2
# [13] = combination with vancomycin, end of treatment
# [14] = end of treatment period, compound alone
# [15] = males, combination with vancomycin (1 + 110 mg/kg/day), end of treatment, considered vancomycin-related
smiles,measurement,setting,value
COC1C=COC2(C)Oc3c(C)c(O)c4c(=O)c(c5oc6cc(OCCN(C)C)ccc6nc-5c4c3C2=O)NC(=O)C(C)=CC=CC(C)C(O)C(C)C(O)C(C)C(OC(C)=O)C1C (centres unmarked) [Compound 4],Intracellular MIC,S. aureus NRS384 [1],0.04 µM
same,Intracellular MIC,[2],30 µM
same,Intracellular MIC,[3],100 µM
same,albumin concentration,Sprague Dawley rats; [13],minimal decrease
same,glucose concentration,Sprague Dawley rats; [13],minimal increase
same,urea nitrogen,Sprague Dawley rats; [13],minimal increase
same,dose with apparent minimal increase in alkaline phosphatase in males,Sprague Dawley rats; end of recovery period,≥ 1 mg/kg/day
same,dose with increase in glucose,Sprague Dawley rats; end of recovery period,≥ 0.1 mg/kg/day
same,dose with minimal to mild decreases in globulin in males,Sprague Dawley rats; end of recovery period,≥ 0.1 mg/kg/day
same,dose with minimal increases in phosphorus,Sprague Dawley rats; end of treatment period,≥ 0.1 mg/kg/day
same,dose with minimal increases in reticulocyte counts,Sprague Dawley rats; end of treatment period,≥ 0.1 mg/kg/day
same,dose with minimal decrease in albumin concentration,Sprague Dawley rats; [14],10 mg/kg/day
same,dose with minimal increase in glucose concentration,Sprague Dawley rats; [14],1 mg/kg/day
same,neutrophils counts,Sprague Dawley rats; [15],mild decreases
same,platelet counts,Sprague Dawley rats; [15],minimal increase
same,"red cell mass parameters (red blood cells, hemoglobin, hematocrit)",Sprague Dawley rats; [15],minimal decreases
same,calcium,"Sprague Dawley rats; males, combination with vancomycin, after 14-day recovery",minimal decrease
same,globulin,"Sprague Dawley rats; males, combination with vancomycin, end of recovery period",minimal to mild decreases
same,fibrinogen,"Sprague Dawley rats; males, combination with vancomycin, end of treatment, attributed to vancomycin",minimal increases
same,tolerability,"Sprague Dawley rats; rat, IV QD 14 days, 0.1-10 mg/kg/day",well-tolerated
same,"body weight, body weight gains, food consumption changes","Sprague Dawley rats; rat, IV QD 14 days, alone or in combination with vancomycin","no body weight, body weight gains, or food consumption changes"
same,no-observed-adverse-effect level (NOAEL),"Sprague Dawley rats; rat, IV QD 14 days, highest dose administered",10 mg/kg/day
same,T1/2,[4],>2 h
same,T1/2,[5],>2 h
same,Mean A-B % Recovery,[6],52.70%
same,Mean B-A % Recovery,[6],66.30%
same,Mean Papp A-B,[6],2.59 10^−6 cm/s
same,Mean Papp B-A,[6],10.3 10^−6 cm/s
same,IC50,CYP 1A2,10.9 µM
same,IC50,CYP 2B6,11.6 µM
same,IC50,CYP 2C19,9.99 µM
same,IC50,"CYP 3A4; CYP 3A4, substrate Midazolam",8.05 µM
same,IC50,"CYP 3A4; CYP 3A4, substrate Testosterone",5.66 µM
same,IC50,CYP 2C8,6.76 µM
same,IC50,CYP 2D6,11.7 µM
same,Mean (B-A/A-B) Efflux Ratio,[7],3.97
same,Mean (B-A/A-B) Efflux Ratio,[8],13.7
same,"half-lives, rodent S9 microsomal stability",[9],greater than 120 min
same,Average % Stability,[10],75.8%
same,Broth MIC,S. aureus NRS384 [11],0.00391 µM
same,Broth MIC,[12],4 µM
